Details of the series: species or system human. As to conditions: in vivo. From the text:
Method: 12 healthy male (20-50 yrs) were enrolled in a randomized and double blind crossover design of four treatments with a minimum of 1 week wash-out period between each treatment was applied.
In the present invention, only 2 treatments are object of investigation: green tea extract (control) and green tea extract+hesperitin 7-glucoside (intervention).
Each treatment was formulated to contain 1 g equivalent of Choladi green tea extract. Subjects in the intervention group received a mixture of 1 g of green tea extract and 100 mg of hesperitin-7-glucoside.
After ingestion, plasma was collected over 24 h. Plasma EGCG analyses were performed by HPLC coupled with an electrochemical detection.
EGCG bioavailability was calculated from plasma kinetics by measuring the Area Under its concentration-time Curve (AUC).

Structures are written as SMILES.

As for `COc1ccc([C@@H]2CC(=O)c3c(O)cc(O[C@@H]4O[C@H](CO)[C@@H](O)[C@H](O)[C@H]4O)cc3O2)cc1O` [hesperitin 7-glucoside], the “absorption of EGCG when flavan-3-ols are co-administered” value was “significantly enhanced”.
